The record followed here is patent publication US7696190B2, “16Alpha-methyl or ethyl substituted estrogens” (N.V. Organon, priority 2000, dated 2010).

Structures are written as SMILES.

This assay concerns human estrogen receptor α (hERα) or β receptor (hERβ). Nature of the assay: in vitro transactivation bioassay (luciferase reporter) in recombinant CHO cells, estrogenic (agonist) activity compared with estradiol. As to conditions: percentage agonist activity for ER α divided by percentage agonist activity for ER β; CHO cells co-transfected with hERα or hERβ, rat oxytocin promoter and luciferase reporter. Type of assay: cell-based. As for the experimental part:
Compounds are tested for their estrogen receptor activity in a binding assay and in a transactivation assay. The estrogenic and antiestrogenic activity of compounds is determined in an in vitro bioassay with recombinant Chinese hamster ovary (CHO) cells stably co-transfected with the human estrogen receptor α (hERα) or β receptor (hERβ), the rat oxytocin promoter (RO) and the luciferase reporter gene (LUC). The estrogenic activity (potency ratio) of a test compound to stimulate the transactivation of the enzyme luciferase mediated via the estrogen receptors hERα or hERβ is compared with the standard estrogen estradiol. The antiestrogenic activity (potency ratio) of a test compound to inhibit the transactivation of the enzyme luciferase mediated via the estrogen receptors hERα or hERβ by the estrogen estradiol is compared with the standard ICI 164.384 (=(7α,17β)-N-butyl-3,17-dihydroxy-N-methylestra-1,3,5(10)-triene-7-undecanamide). A quantitative parameter for agonist selectivity is obtained by dividing the percentage agonist activity for ER α by the percentage agonist activity for ER β. Compound 11a has agonist selectivity for estrogen receptor α over estrogen receptor β of more than 86 times. Compound 26 has an agonist selectivity for ER α over ER β of 59 times. Compound 27 has agonist selectivity of 88.3 times.
For orientation: Reporter assays use an easily measured gene product as a stand-in for the process of interest.

In the case of `C#CC1(O)C(C)CC2C3CCC4=C(CCC(O)C4)C3C(CC=C)CC21C` (stereo not drawn) [Compound 27, (3α,11β,16α,17β)-16-methyl-11-(2-propenyl)-19-norpregn-5(10)-en-20-yne-3,17-diol], the “agonist selectivity for estrogen receptor α over estrogen receptor β” value worked out at 88.3 times.
